Measured values: patent publication US20240262807A1, “COMPOUND USED AS BCR-ABL INHIBITOR” (CHIA TAI TIANQING PHARMACEUTICAL GROUP CO., LTD., priority 2021, published 2024)

Tests used:
[1] = test system: K562 cells; test: Inhibitory effect of compounds on proliferation of K562 cells (CCK-8); assay type: cell-based; settings: Homo sapiens, 72 h with compound, CCK-8, 5% serum
Description: K562 cells in logarithmic growth phase and good cell condition were added to a centrifuge tube and centrifuged at 1000 rpm for 5 min in a low speed centrifuge. […] The cells were seeded on a 96-well plate at 100 µL/well using a multi-channel pipette and cultured in a cell incubator at 37° ° C. 5% CO2 and saturated humidity. […] Inhibition rate (%)=(mean value of negative control group−mean value of experimental group)/(mean value of negative control group−mean value of blank group)×100%. A dose-response curve was fitted by four-parameter analysis, with the logarithm of compound concentration serving as abscissa and inhibition rate serving as ordinate, such that IC50 was calculated.

[2] = biological target: T1, Ba/F3-BCR-ABL1-T315I-C3 cells (Homo sapiens, UniProt P00519, T315I, cells depend on it); test: Inhibitory effect of compounds on proliferation of BCR-ABL T315I-transfected Ba/F3 cells (CCK-8); assay type: cell-based; settings: 72 h with compound, CCK-8, 5% serum, read-out: IC50 (nM) Ba/F3-BCR-ABL1 T315I
T1 construct: fused on or other part: P11274 (Breakpoint cluster region protein)
Description: Ba/F3-BCR-ABL1-T315I-C3 cells in logarithmic growth phase and good cell condition were added to a centrifuge tube and centrifuged at 1000 rpm for 5 min in a low speed centrifuge. The supernatant was discarded, and 5 mL of complete medium (RPMI 1640 basic medium+10% FBS) was added using a pipette for cell resuspension. The cells were counted using a cell counter, diluted with complete medium to a cell density of 6×10^4 cells/mL, and an equivalent amount of RPMI 1640 basic medium was added to adjust the serum concentration to 5% and the cell density to 3×10^4 cells/mL for plate seeding. The cells were seeded on a 96-well plate at 100 μL/well using a multi-channel pipette and cultured in a cell incubator at 37° C. 5% CO2 and saturated humidity. After 24 h incubation, compounds were loaded using a nanoliter pipettor, 8 concentrations (1000 nM, 250 nM, 63 nM, 16 nM, 3.9 nM, 0.98 nM, 0.24 nM, 0.061 nM) were set for each compound, and 2 replicate wells were set for each concentration; cells with no compounds added were taken as a negative control, and a plating medium with no cells added was taken as a blank control. After 72 h. […] Inhibition rate (%)=(mean value of negative control group−mean value of experimental group)/(mean value of negative control group−mean value of blank group)×100%. A dose-response curve was fitted by four-parameter analysis, with the logarithm of compound concentration serving as abscissa and inhibition rate serving as ordinate, such that ICso was calculated.

Row | SMILES | IC50 [1] | GI50 [2]
1 | COc1ncc(C(=O)Nc2ccc(OC(F)(F)Cl)cc2)cc1-c1cc(=O)n(C)cn1 [Compound 71] | 43 nM | 
2 | O=C(Nc1ccc(OC(F)(F)Cl)cc1)c1cnc(N2C3CCC2COC3)c(-c2cnn3c2COCC3)c1 [Compound 37] | 7.8 nM | 16 nM
3 | C[C@@H]1COCCN1c1ncc(C(=O)Nc2ccc(OC(F)(F)Cl)cc2)cc1-c1cc(=O)n(C)cn1 [Compound 56] | 18 nM | 12 nM
4 | Cn1ncc(-c2cc(C(=O)Nc3ccc(OC(F)(F)Cl)cc3)cnc2N2CC3CC(C2)O3)cc1=O [Compound 83] | 3.2 nM | 4.1 nM
5 | Cn1cnc(-c2cc(C(=O)Nc3ccc(OC(F)(F)Cl)cc3)cnc2N2CC[C@@H](O)C2)cc1=O [Compound 46] | 26 nM | 26 nM
6 | C[C@H]1COCCN1c1ncc(C(=O)Nc2ccc(OC(F)(F)Cl)cc2)cc1-c1cc(=O)n(C)cn1 [Compound 57] | 59 nM | 
7 | CON(C)c1ncc(C(=O)Nc2ccc(OC(F)(F)Cl)cc2)cc1-c1cc(=O)n(C)cn1 [Compound 81] | 10 nM | 
8 | CN(C)c1ncc(C(=O)Nc2ccc(OC(F)(F)Cl)cc2)cc1-c1cc(=O)n(CC2CCOCC2)cn1 [Compound 78] | 46 nM | 
9 | Cn1ccc(-c2cc(C(=O)Nc3ccc(OC(F)(F)Cl)cc3)cnc2N2CC[C@@H](O)C2)cc1=O [Compound 11] | 12 nM | 54 nM
10 | Cn1cnc(-c2cc(C(=O)Nc3ccc(OC(F)(F)Cl)cc3)cnc2N2C[C@@H](F)[C@H](F)C2)cc1=O [Compound 79] | 17 nM | 
11 | Cn1ccc(-c2cc(C(=O)Nc3ccc(OC(F)(F)Cl)cc3)cnc2N2CC(C)(O)C2)cc1=O [Compound 26] | 26 nM | 53 nM
12 | Cn1ccc(-c2cc(C(=O)Nc3ccc(OC(F)(F)Cl)cc3)cnc2N2C[C@H](O)[C@@H](F)C2)cc1=O [Compound 27] | 18 nM | 67 nM
13 | O=C(Nc1ccc(OC(F)(F)Cl)cc1)c1cnc(N2CC3CC(C2)O3)c(-c2cnn3c2COCC3)c1 [Compound 39] | 5.9 nM | 2.4 nM
14 | COCCOc1ncc(C(=O)Nc2ccc(OC(F)(F)Cl)cc2)cc1-c1cc(=O)n(C)cn1 [Compound 70] | 95 nM | 
15 | Cn1cc(-c2cc(C(=O)Nc3ccc(OC(F)(F)Cl)cc3)cnc2N2CCOCC2)ccc1=O [Compound 84] | 45 nM | 
16 | Cn1cnc(-c2cc(C(=O)Nc3ccc(OC(F)(F)Cl)cc3)cnc2-c2ccn[nH]2)cc1=O [Compound 69] | 47 nM | 
17 | Cn1cnc(-c2cc(C(=O)Nc3ccc(OC(F)(F)Cl)cc3)cnc2-n2ccnc2)cc1=O [Compound 66] | 31 nM | 

Row | SMILES | IC50 [1] | GI50 [2]
18 | Cn1cnc(-c2cc(C(=O)Nc3ccc(OC(F)(F)Cl)cc3)cnc2N2CC(O)C2)cc1=O [Compound 48] | 13 nM | 
19 | Cn1nccc1-c1ncc(C(=O)Nc2ccc(OC(F)(F)Cl)cc2)cc1-c1cc(=O)n(C)cn1 [Compound 73] | 14 nM | 
20 | Cn1cc(-c2cc(C(=O)Nc3ccc(OC(F)(F)Cl)cc3)cnc2N2CCOCC2)ncc1=O [Compound 82] | 57 nM | 
21 | Cn1ccc(-c2cc(C(=O)Nc3ccc(OC(F)(F)Cl)cc3)cnc2N2C[C@H]3C[C@@H]2CO3)cc1=O [Compound 21] |  | 20 nM
22 | O=C(Nc1ccc(OC(F)(F)Cl)cc1)c1cnc(N2C[C@@H]3C[C@H]2CO3)c(-c2cnn3c2COCC3)c1 [Compound 40] |  | 7.4 nM
23 | Cn1cnc(-c2cc(C(=O)Nc3ccc(OC(F)(F)Cl)cc3)cnc2-n2cccn2)cc1=O [Compound 77] | 13 nM | 
24 | O=C(Nc1ccc(OC(F)(F)Cl)cc1)c1cnc(N2C[C@H]3C[C@@H]2CO3)c(-c2cnn3c2COCC3)c1 [Compound 38] |  | 5.7 nM
25 | Cn1cnc(-c2cc(C(=O)Nc3ccc(OC(F)(F)Cl)cc3)cnc2N2C[C@H]3C[C@@H]2CO3)cc1=O [Compound 51] | 13 nM | 
26 | O=C(Nc1ccc(OC(F)(F)Cl)cc1)c1cnc(N2CC[C@@H](O)C2)c(-c2cc3nccn3[nH]2)c1 [Compound 102] |  | 76 nM
27 | Cn1cnc(-c2cc(C(=O)Nc3ccc(OC(F)(F)Cl)cc3)cnc2N2CC3CC(C2)O3)cc1=O [Compound 52] | 6.1 nM | 
28 | O=C(Nc1ccc(OC(F)(F)Cl)cc1)c1cnc(N2C3COCC2C3)c(-c2cnn3c2COCC3)c1 [Compound 92] | 15 nM | 
29 | Cn1cnc(-c2cc(C(=O)Nc3ccc(OC(F)(F)Cl)cc3)cnc2N2CCCO2)cc1=O [Compound 80] | 14 nM | 
30 | Cn1ccc(-c2cc(C(=O)Nc3ccc(OC(F)(F)Cl)cc3)cnc2N2C[C@@H]3C[C@H]2CO3)cc1=O [Compound 22] |  | 35 nM
31 | CNc1ncc(C(=O)Nc2ccc(OC(F)(F)Cl)cc2)cc1-c1cc(=O)n(C)cn1 [Compound 62] | 18 nM | 
32 | Cn1cnc(-c2cc(C(=O)Nc3ccc(OC(F)(F)Cl)cc3)cnc2N2C3CCC2COC3)cc1=O [Compound 49] | 10 nM | 
33 | COCCNc1ncc(C(=O)Nc2ccc(OC(F)(F)Cl)cc2)cc1-c1cc(=O)n(C)cn1 [Compound 55] | 26 nM | 
34 | CN1Cc2nc(-c3cc(C(=O)Nc4ccc(OC(F)(F)Cl)cc4)cnc3N3CC[C@@H](O)C3)[nH]c2C1=O [Compound 95] | 39 nM | 

Second part, the compound after the results:

Row | IC50 [1] | GI50 [2] | SMILES
35 | 12 nM |  | C[C@@H]1COCCN1c1ncc(C(=O)Nc2ccc(OC(F)(F)Cl)cc2)cc1-c1cnn2c1COCC2 [Compound 93]
36 | 2.6 nM | 1.8 nM | Cn1ncc(-c2cc(C(=O)Nc3ccc(OC(F)(F)Cl)cc3)cnc2N2CCCC2)cc1=O [Compound 47]
37 | 10 nM |  | Cn1cnc(-c2cc(C(=O)Nc3ccc(OC(F)(F)Cl)cc3)cnc2N2CC3CCC(C2)O3)cc1=O [Compound 50]
38 | 2.1 nM | 3.4 nM | CO[C@@H]1CCN(c2ncc(C(=O)Nc3ccc(OC(F)(F)Cl)cc3)cc2-c2cnn3c2COCC3)C1 [Compound 41]
39 | 6.3 nM | 4 nM | Cn1cncc(-c2cc(C(=O)Nc3ccc(OC(F)(F)Cl)cc3)cnc2N2CCOCC2)c1=O [Compound 60]
40 | 8.5 nM | 6.4 nM | Cn1cnc(-c2cc(C(=O)Nc3ccc(OC(F)(F)Cl)cc3)cnc2N2CCOCC2)cc1=O [Compound 54]
41 | 4.7 nM | 3.8 nM | O=C(Nc1ccc(OC(F)(F)Cl)cc1)c1cnc(N2CC(O)C2)c(-c2cc3c([nH]2)C(=O)NCC3)c1 [Compound 98]
42 | 4.9 nM | 8.1 nM | Cn1ccc(-c2cc(C(=O)Nc3ccc(OC(F)(F)Cl)cc3)cnc2N2CC[C@@H](Cl)C2)cc1=O [Compound 18]
43 | 10 nM | 18 nM | Cn1ccc(-c2cc(C(=O)Nc3ccc(OC(F)(F)Cl)cc3)cnc2N2CC[C@H](C#N)C2)cc1=O [Compound 30]
44 | 0.82 nM | 0.12 nM | O=C(Nc1ccc(OC(F)(F)Cl)cc1)c1ccc(N2CC[C@@H](O)C2)c(-c2cc3c([nH]2)C(=O)NC3)c1 [Compound 116]
45 | 2.2 nM | 4 nM | O=C(Nc1ccc(OC(F)(F)Cl)cc1)c1cnc(N2CCOCC2)c(-c2cnn3c2COCC3)c1 [Compound 43]
46 | 3 nM | 2.7 nM | Cn1cnc(-c2cc(C(=O)Nc3ccc(OC(F)(F)Cl)cc3)cnc2N2CC[C@@H](F)C2)cc1=O [Compound 53]
47 | 3.1 nM | 0.44 nM | CNc1ncc(C(=O)Nc2ccc(OC(F)(F)Cl)cc2)cc1-c1cc2c([nH]1)C(=O)NC2 [Compound 110]
48 | 4.7 nM | 0.59 nM | O=C(Nc1ccc(OC(F)(F)Cl)cc1)c1cnc(N2CCOCC2)c(-c2cc3c([nH]2)C(=O)NC3)c1 [Compound 96]
49 | 0.21 nM | 0.084 nM | O=C(Nc1ccc(OC(F)(F)Cl)cc1)c1ccc(N2CC(O)C2)c(-c2cc3c([nH]2)C(=O)N(C2CC2)C3)c1 [Compound 120]
50 | 9.2 nM | 6.3 nM | Cn1cnc(-c2cc(C(=O)Nc3ccc(OC(F)(F)Cl)cc3)cnc2N2CC(F)(F)C2)cc1=O [Compound 72]
51 | 0.56 nM | 0.21 nM | O=C(Nc1ccc(OC(F)(F)Cl)cc1)c1cnc(N2CC(O)C2)c(-c2cc3c([nH]2)C(=O)N(C2CC2)C3)c1 [Compound 114]
52 | 6.8 nM | 12 nM | Cn1ccc(-c2cc(C(=O)Nc3ccc(OC(F)(F)Cl)cc3)cnc2N2CCCO2)cc1=O [Compound 29]
53 | 3.2 nM | 1.4 nM | O=C(Nc1ccc(OC(F)(F)Cl)cc1)c1cnc(N2CC[C@@H](O)C2)c(-c2cc3c([nH]2)C(=O)NCC3)c1 [Compound 99]
54 | 9.3 nM |  | CCn1ccc(-c2cc(C(=O)Nc3ccc(OC(F)(F)Cl)cc3)cnc2N2CCOCC2)cc1=O [Compound 9]
55 | 10 nM |  | Cn1ncc(-c2cc(C(=O)Nc3ccc(OC(F)(F)Cl)cc3)cnc2N2C[C@H]3C[C@@H]2CO3)cc1=O [Compound 88]
56 | 10 nM |  | CN1CCc2oc(-c3cc(C(=O)Nc4ccc(OC(F)(F)Cl)cc4)cnc3N3CC[C@@H](O)C3)cc2C1=O [Compound 101]
